{"source": "patent US11884649B2", "about": "“IRE1α inhibitors and uses thereof” (The Regents of the University of California, priority 2020, dated 2024)", "key": {"IRE1α*": {"target": "T1, IRE1α* (Homo sapiens, UniProt O75460)", "T1 construct": "human IRE1α (residues 547-977, IRE1α*) was expressed in SF9 insect cells; His6 (N); made in house; host or cells: Sf9 insect cells (Bac-to-Bac baculovirus)", "T1 sequence (O75460 547-977)": "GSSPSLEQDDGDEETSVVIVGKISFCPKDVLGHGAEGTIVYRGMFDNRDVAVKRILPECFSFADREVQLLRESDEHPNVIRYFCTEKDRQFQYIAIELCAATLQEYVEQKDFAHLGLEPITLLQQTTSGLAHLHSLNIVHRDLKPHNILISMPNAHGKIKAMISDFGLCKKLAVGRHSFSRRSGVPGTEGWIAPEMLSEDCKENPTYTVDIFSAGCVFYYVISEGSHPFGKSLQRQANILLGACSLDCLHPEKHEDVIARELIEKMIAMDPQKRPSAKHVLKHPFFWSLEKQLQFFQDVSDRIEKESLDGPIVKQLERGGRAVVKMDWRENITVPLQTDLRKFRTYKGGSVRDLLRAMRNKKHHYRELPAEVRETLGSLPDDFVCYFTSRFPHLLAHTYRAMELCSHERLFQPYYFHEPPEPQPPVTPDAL", "assay": "In vitro RNase activity assay, XBP1-mini substrate cleavage, inhibitor titrations", "type": "biochemical", "details": "relative to apo IRE1α*", "protocol": "In Vitro RNase Activity Assay Inhibitor Titrations\n50 nM IRE1α* was incubated with inhibitor (initial concentration of 10 or 60 μM, three-fold serial dilutions) or DMSO for 30 min in assay buffer (20 mM Tris, 50 mM NaCl, 1 mM MgCl2, 2 mM DTT, 0.05% Triton X-100 (v/v), pH 7.5). Assays were initiated by adding 10 μL of XBP1-mini substrate (5′-Alex647-CAUGUCCGCAGCGCAUG-IowaBlack-FQ-3′ (SEQ ID NO: 1); IDT) to the wells at a final concentration of 200 nM and a final well volume of 30 μL. Fluorescence was detected on a Perkin Elmer Envision Microplate Reader at excitation and emission wavelengths of 650 nm and 665 nm. Dose-response curves were fit using “one-site fit log IC50” parameter using GraphPad Prism analysis software."}, "XBP1 mRNA splicing": {"system": "XBP1 mRNA splicing", "assay": "XBP1 splicing in human islets subjected to ER stress", "type": "cell-based", "details": "DTT, 20 μM compound", "protocol": "INS-1 or isogenic IRE1α-overexpressing INS-1 cells were plated onto Poly-D-Lysine coated tissue culture plate and grown for 48 hrs. Inhibitors or DMSO were added to the media and incubated for 1 hour at 37° C. with 5% CO2 prior to addition of ER stress agents or Dox as indicated. RNA was isolated from whole cells using either QIAGEN RNeasy Mini kits or Trizol (Invitrogen) and reverse transcribed as above to obtain total cDNA. Then, XBP-1 primers were used to amplify an XBP-1 amplicon spanning the 26 nt intron from the cDNA samples in a regular 3-step PCR. Thermal cycles were: 5 min at 95° C., 30 cycles of 30 s at 95° C., 30 s at 60° C., and 1 min at 72° C., followed by 72° C. for 15 min, and hold at 4° C. Primers used for XBP-1 mRNA splicing were as follows: sense primer XBP1.3 S (5′ […]-3′ (SEQ ID NO:2)) and antisense primer XBP1.2AS (5′-[…]-3′ (SEQ ID NO:3)). PCR fragments were then digested by PstI, resolved on 3% agarose gels, stained with EtBr and quantified by densitometry using ImageJ (NIH). For standard mRNA detection, generally […] total RNA was reverse transcribed using the QuantiTect Reverse Transcription Kit (QIAGEN). […]\nNon-diabetic human islets were obtained and cultured in supplemented Prodo Islet Medium (PIM(S) from Prodo Labs). […] Collected media were analyzed by anti-insulin ELISA (EMD Millipore) and insulin levels were normalized to total protein amount."}}}
{"smiles": "O=S(=O)(CC(F)(F)F)Nc1ccc(Oc2ncccc2-c2ccnc(N[C@H]3CCCNC3)n2)c2ccccc12", "note": "(stereo in doubt) [PAIR1, 2,2,2-trifluoro-N-(4-(3-(2-(piperidin-3-ylamino)pyrimidin-4-yl)pyridin-2-yloxy)naphthalen-1-yl)ethanesulfonamide]", "values": [{"measurement": "RNase activity of IRE1α* (in words)", "setting": "IRE1α*", "result": "partially inhibit"}, {"measurement": "XBP1 mRNA splicing", "setting": "XBP1 mRNA splicing", "result": "only weakly inhibited"}]}
